In patent US11155580B2, “Modified proteins and methods of use thereof” (YALE UNIVERSITY, priority 2013, dated 2021):
“Also recorded” adds a separate entry of the source. Where no end group is shown, it is not given here. fluorescein = fluorescein label; rhodamine = not defined here; Rhod = not defined here

Assays:
HeLa cells [1] = test: Colocalization of rhodamine and fluorescein labeled miniature proteins and peptides; type: cell-based; conditions: 1 μM each, 30 min, 37° C.
Protocol: HeLa cells were treated with a mixture of rhodamine—(indicated by the superscript R) and fluorescein—(indicated by the superscript F)—labeled miniature protein or peptide (1 μM each) for 30 min at 37° C., washed, and then imaged using confocal microscopy. […] The remaining molecules show high fluorescence, and molecules sharing the same sequence (but different labels) show high degrees of overlap, with R>0.68. The amino acid sequence of Arg8 is provided in SEQ ID NO:68.
Colocalization between rhodamine and fluorescein labeled miniature proteins and peptides, or between rhodamine labeled miniature proteins and markers of endocytosis was completed using confocal microscopy. […] Alexafluor-488-transferrin was detected using a 488 nm laser and a 520 nm long pass filter; tetraethylrhodamine and Alexafluor-546-transferrin were detected using a 546 nm laser line and a 580 nm long pass filter, Hoescht 33342 was detected using a 405 nm laser line and a 450 nm long pass filter. […] The fraction of rhodamine signal overlapping with EGFP signal (R E G) was calculated using Mander's coefficient and automatic thresholding. […]

Saos-2(GIGT) cells = test: GIGT high-content imaging in stably transfected Saos-2(GIGT) cells; type: cell-based, human
Protocol: Saos2(GIGT) cells were plated onto 384-well plates (2,500 cells/well) in 40 μL of full McCoy's 5A and allowed to adhere overnight. […] Following treatment, cells were fixed with 4% paraformaldehyde for 20 min at room temperature and washed with PBS. […] Translocation ratios were determined using Acapella high content imaging and analysis software, with a script that processed the images in a manner similar to the CellProfiler pipeline described in the Supporting Information. Each data point represents 30-60 images containing over 100 cells.

[2] = system: HeLa cells transfected with GR-GFP; test: GR-GFP translocation assay (cytosolic access of Dex-labeled molecules); type: cell-based; conditions: for effect of bafilomycin on TR: 200 nM bafilomycin pretreatment 1 h; for effect of bafilomycin on TR / effect of EIPA on TR / effect of dynasore on TR / effect of methyl-β-cyclodextrin (MβCD) on TR: then 1 μM; for translocation ratio (TR) / effect of EIPA on TR / effect of dynasore on TR / effect of methyl-β-cyclodextrin (MβCD) on TR: 30 min; for translocation ratio (TR): HeLa cells expressing GR-GFP; for effect of EIPA on TR: 50 μM EIPA pretreatment 30 min; for effect of dynasore on TR: 80 μM dynasore pretreatment 30 min; for effect of methyl-β-cyclodextrin (MβCD) on TR: 5 mM MβCD pretreatment 30 min
Protocol: HeLa cells transfected with pK7-GR-GFP were plated in Matrical plates as described above. To label nuclei, the media was replaced with HKR buffer containing 300 nM Hoescht and the cells incubated for 30 min at 37° C.
Cells were then analyzed as described above.
HeLa cells transfected with pK7-GR-GFP for 24-36 hr were plated (10^4/well in 200 μL) the day prior to experiments in 96 well glass bottom plates (Matrical). The media was replaced with HKR buffer containing 300 nM Hoescht and the cells incubated for 30 min at 37° C. […] The cells were incubated for a further 30 min at 37° C. before epifluorescence imaging using a Zeiss Axiovert 200M microscope fitted with a mRM digital camera, a 63×1.3NA PlanApo objective and an EXFO-Excite illumination source.
Uptake was allowed to proceed for an additional 30 min at 37° C. before analysis by epifluorescence images as described elsewhere herein.
The image analysis algorithm used by CellProfiler is customizable and contained within a ‘Pipeline’ that describes a series of image manipulation and evaluation steps, such as reading the image, adjusting the intensity, and identifying objects. Each step has several options. […] Using the image of Hoescht fluorescence and Otsu's method of automatic thresholding, nuclei were identified and segmented using 3 class thresholding. The middle class was assigned to background. Closely approximated objects were separated using ‘Laplacian of Gaussian’ modeling, and touching nuclei were divided using the ‘shape’ option. Nuclear regions were expanded by 2 μm to generate an enlarged region. The nuclear region was subtracted from enlarged region to generate a ring surrounding the nucleus (surround). […] The ratio of the median intensities of the nuclear and surrounding region of the GFP or mCherry (as appropriate) image were collected for every cell examined. Those cells falling below a threshold of intensity (10% of the maximum intensity of the image) were discarded as ‘untransfected’. Typically, 20-60 transfected cells from 15-30 images were examined for each experimental condition.

U2OS(GIGI) cells = test: GIGI in lysates, stably transfected U2OS(GIGI) cells; type: cell-based
Excerpt: RFUs are expressed±standard deviation (Excel). The maximum induction level is defined as RFUmax. Data were processed using Kaleidagraph and GraphPad Prism software. RFU=([I530]/[I580])−([I′530]/[I′580]) (1)
Y=Ymin+(Ymax−Ymin)/(1+10^logEC50-X) (2)

[3] = system: HeLa cells transfected with pGR-mCherry and Rab5-GFP or Rab5Q79L-GFP; test: GR-mCherry translocation in cells expressing Rab5-GFP or Rab5Q79L-GFP; type: cell-based; conditions: for effect of Rab5Q79L on ability to reach the cytoplasm / TR: overexpression of Rab5Q79L-GFP
Protocol: Cotransfected cells expressing Rab-GFP fusions and pGR-mCherry were identified via their characteristic pattern of green and red fluorescence. The translocation ratio was determined using median values of mCherry fluorescence within the nucleus and surrounding region using CellProfiler.
HeLa cells transfected for 24-36 hr with pGR-mCherry and either Rab5-GFP or Rab5Q79L-GFP were plated (10^4/well in […]) the day prior to experiments in 96 well glass bottom plates (Matrical). The cells were washed with HKR buffer and the nuclei labeled using Hoescht as above. […] The cells were incubated for a further 30 min at 37° C. before imaging. Cells that had been cotransfected with EGFP fusions were identified via their characteristic pattern of green and red fluorescence. To evaluate the extent of GR activation, epifluorescence images were obtained as described above, except the fluorescence of pGR-mCherry was also visualized using Zeiss Filter Set #43 (ex BP 545/25 nm, FT 570, em BP 605/70 nm).
The image analysis algorithm used by CellProfiler is customizable and contained within a ‘Pipeline’ that describes a series of image manipulation and evaluation steps, such as reading the image, adjusting the intensity, and identifying objects. Each step has several options. […] Using the image of Hoescht fluorescence and Otsu's method of automatic thresholding, nuclei were identified and segmented using 3 class thresholding. The middle class was assigned to background. Closely approximated objects were separated using ‘Laplacian of Gaussian’ modeling, and touching nuclei were divided using the ‘shape’ option. Nuclear regions were expanded by 2 μm to generate an enlarged region. The nuclear region was subtracted from enlarged region to generate a ring surrounding the nucleus (surround). The diameter of the surrounding region was chosen to be 2 μm larger than the nucleus, within the range (1-3 μm) used by previously reported high content screens (Ding et al., 1998, J Biol Chem. 273:28897-28905; Peeraniet al., 2007, EMBO J. 26:4744-4755). The ratio of the median intensities of the nuclear and surrounding region of the GFP or mCherry (as appropriate) image were collected for every cell examined. Those cells falling below a threshold of intensity (10% of the maximum intensity of the image) were discarded as ‘untransfected’. Typically, 20-60 transfected cells from 15-30 images were examined for each experimental condition.

HeLa cells [4] = test: Colocalization with Alexa-488-transferrin (Tf488), live cell confocal microscopy; type: cell-based; conditions: 1 μM, 30 min
Protocol: To examine the colocalization of rhodamine labeled miniature proteins or peptides with Alexa-488-transferrin (Tf488), HeLa cells were plated (200 μl, 10^4 cells/well, 96 well glass bottom plates, Matrical) the day prior to experiments. The media was replaced with 150 μL Hepes-Krebs-Ringer's (HKR) buffer (140 mM NaCl, 2 mM KCl, 1 mM CaCl2, 1 mM MgCl2, 10 mM Hepes pH 7.4) containing 1 μM miniature protein or 25 nM Alexa-488-transferrin (Molecular Probes) and the cells incubated at 37° C. for 30 min. The cells were then rinsed twice with 200 μL, HKR buffer and nuclei were labeled by overlaying 200 μL HKR containing 300 nM Hoechst 33342 (Molecular Probes Cat. # H3570) for 5 minutes. Images of cells were acquired using a PerkinElmer LiveView spinning disk confocal microscope fitted with a 60×1.2 NA objective. Colocalization with Rab-GFP fusions was examined in an analogous way using HeLa cells transfected with the appropriate expression plasmid.
Colocalization between rhodamine and fluorescein labeled miniature proteins and peptides, or between rhodamine labeled miniature proteins and markers of endocytosis was completed using confocal microscopy. Live cell confocal microscopy was conducted using a PerkinElmer LiveView spinning disk confocal microscope fitted with heated microscope enclosure (maintained at 37° C.), a 60×1.2 NA objective, laser illumination, a Nipkow CSU-1× spinning disk, and a Hammamatsu CS9100 EMCCD camera operated using Velocity software. Alexafluor-488-transferrin was detected using a 488 nm laser and a 520 nm long pass filter; tetraethylrhodamine and Alexafluor-546-transferrin were detected using a 546 nm laser line and a 580 nm long pass filter, Hoescht 33342 was detected using a 405 nm laser line and a 450 nm long pass filter. Images were processed for presentation by using the ‘subtract background’ option and linear contrast adjustments in Image J. All adjustments were applied uniformly to the entire image. Colocalization analysis was performed using the JACOP plugin (Bolte and Cordelières, 2006), available on the ImageJ website. The fraction of rhodamine signal overlapping with EGFP signal (R E G) was calculated using Mander's coefficient and automatic thresholding. Pearson's correlation coefficient (R) was also obtained using the JACOP plugin.

HeLa cells [5] = test: HPLC analysis of cytosolic extracts prepared with streptolysin O; type: cell-based; conditions: HeLa cells treated with rhodamine labeled molecule
Protocol: To generate cytosolic extracts, HeLa cells were treated with streptolysin O (SLO), a well characterized bacterial toxin that creates pores in the plasma membranes of target cells (Walev et al., 2002, FASEB 16:237-239). […] Moreover, when the toxin is added to cultured cells at 4° C. and washed with PBS before raising the temperature to 37° C., pores are created only in the plasma membrane and the release of ER, golgi, or endolysosomal contents are avoided (Androlewicz et al., 1993, Proc Natl Acad Sci USA 90:9130-9134).
First, selective release of the cytoplasmic contents of HeLa cells using the published procedures was verified. HeLa cells were treated with 20 μg/mL SLO in PBS containing 5 mM DTT (20 min, 4° C.), washed (three PBS washes, 150 μL each), resuspended in PBS, and incubated at 37° C. for 15 min, after which 1.5 μM propidium iodide (PI), a marker of permeabilized cell membranes, was added.

cathepsin B = cathepsin B (Homo sapiens, UniProt P07858); test: Resistance to acid proteases: cathepsin B; type: in vitro ADME; conditions: 50 pmol, 30 min, 37° C., pH 5
Protocol: 50 pmol aPPR, 5.2R, 5.3R, ZF5.3R, TatR (SEQ ID NO:67), or Arg8R (SEQ ID NO:68) were incubated with 5 pg cathepsin B, D, or L for 30 min at 37° C. in 10 μL of 20 mM sodium phosphate buffer (pH 5) containing 150 mM NaCl. At the end of the incubation, the reaction was stopped by adding 40 μL of a solution containing a 84:15:1 ratio of water:EtOH:TFA before analysis by HPLC.

Substance | cell fluorescence (HeLa cells [1]) | effect of bafilomycin on TR [2] | translocation ratio (TR) ([2]; 1 μM) | effect of EIPA on TR [2] | effect of dynasore on TR [2] | effect of methyl-β-cyclodextrin (MβCD) on TR [2] | effect of Rab5Q79L on ability to reach the cytoplasm / TR [3] | material found in SLO cytoplasmic extracts (HPLC) (HeLa cells [5]) | other results
GPSQPTYPGDDAPVEDLIRFYNDLQQYLNVVTRHRYC^FLU-NH2 (GPSQPTYPGDDAPVEDLIRFYNDLQQYLNVVTRHRYC(fluorescein)-NH2) [aPPF] | low fluorescence | – | – | – | – | – | – | – | –
K^DexGRKKRRQRRRPPQY-NH2 (K(dexamethasone)GRKKRRQRRRPPQY-NH2) [TatDex] | – | completely blocked the increase in TR | 2.85±0.10 | reduced, to background levels | reduced, to background levels | reduced, to background levels | blocked the ability | – | translocation ratio (TR), GR★-GFP (Saos-2(GIGT) cells; 1 μM, 30 min, Saos-2(GIGT) cells): 2.28±0.24; increase in TR blocked by wortmannin ([2]; 200 nM wortmannin, 1 μM): 72%; eGFP expression (U2OS(GIGI) cells; 1 μM, lysates): significant eGFP expression; TR (GR-mCherry), Rab5Q79L-GFP expressing cells ([3]; 1 μM, 30 min, Rab5Q79L-GFP): 1.26±0.03; TR (GR-mCherry), Rab5-GFP expressing cells ([3]; 1 μM, 30 min, wild-type Rab5-GFP): 1.57±0.04
K^DexWYSCNVCGKAFVLSRHLNRHLRVHRRAT-NH2 (K(dexamethasone)WYSCNVCGKAFVLSRHLNRHLRVHRRAT-NH2; cysteine pairing not given here) [ZF5.3Dex] | – | reduced to background levels | 2.4±0.09 | reduced to background levels | reduced to background levels | reduced to background levels | – | – | GR★-GFP translocation (GIGT) compared with wtZF and all four ZFN domains (Saos-2(GIGT) cells; GIGT): significantly higher levels; cells expressing GR★-GFP with significant translocation ratios (Saos-2(GIGT) cells; GIGT): greater than 99%; EC50 fold lower than that of ZFN1-4Dex (U2OS(GIGI) cells): 70-80 fold; EC50 fold lower than that of wtZFDex (U2OS(GIGI) cells): 100 fold; EC50 (U2OS(GIGI) cells; Dex-labeled peptides, 24 h, lysates, read-out: EC50 (eGFP expression, GIGI)): 1.4 nM
K^RhodGPSQPTYPGDDAPVEDLIRFYNDLQQYLNVVTRHRY-NH2 (K(rhodamine)GPSQPTYPGDDAPVEDLIRFYNDLQQYLNVVTRHRY-NH2; reading uncertain; also: printed as K^RhodGPSQPTYPGDDAPVEDLIRFYNDLQQYLNVVTRHRY-NH2) [aPPR] | low fluorescence | – | – | – | – | – | – | little to no fluorescent material; also recorded: little or no aPPR is observed | intracellular red fluorescent signal (HeLa cells [4]): little or no red fluorescent signal
K^RhodWYSCNVCGKAFVLSRHLNRHLRVHRRAT-NH2 (K(Rhod)WYSCNVCGKAFVLSRHLNRHLRVHRRAT-NH2; cysteine pairing not given here; reading uncertain; also: printed as KRhodWYSCNVCGKAFVLSRHLNRHLRVHRRAT-NH2) [ZF5.3R] | – | – | – | – | – | – | unaffected | can be recovered from cytosolic extracts; also recorded: a single peak with the same retention time as the starting material | effect of wortmannin on TR ([2]; wortmannin treatment): unaffected; degradation by cathepsin B (HPLC) (cathepsin B): little or no degradation
